Measurements taken from the supplement of paper PMC11208160.

Experiment: recombinant UMI read abundance after kanamycin selection (control-corrected) (log10(CPM+1)); higher = more efficient recombination; extreme values may be limits of the assay; sequences stand for … in AGTGCAGAGAAAATCGGCCAGTTTTCTCTGCCTGCAGTCCGCATGCCGTGGGACCCCTTGGGTTCTAACCTGTTGCCTAGATTTATGCAGCGGACTGCCTTTCTCCCAAAGTGATAAACCGG…AGGTTGGTTTCACT; site = the 11-nt donor
In short: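 Reported values are log10(CPM+1) from a pooled Escherichia coli screen of donor and donor-binding-loop pairs for the IS621 bridge recombinase. Selection used IPTG (0.07 mM) plus kanamycin, against unselected plating, each in two replicates. Recombinant UMIs were amplified across the donor–target junction, sequenced, converted to CPM, averaged over replicates and scaled by control-derived factors.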
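Also: IS621 bridge recombinase in Escherichia coli cells against a fixed T5 target plasmid.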

Row | Sequence | recombinant UMI read abundance (log10)
1 | GCGAAGCCATGGACCGGTTTTCCCGGTAATCCGTATTTGGG (site GCGAACCCTCC) | 0
2 | GCGAAGCCATGGACCGGTTTTCCCGGTAATCCGTATTTGGG (site GCGAAGACTCC) | 0.0597
3 | GCGAAGCCATGGACCGGTTTTCCCGGTAATCCGTATTTGGG (site GCGAAGCCTAC) | 0
4 | GCGAAGCCATGGACCGGTTTTCCCGGTAATCCGTATTTGGG (site GCGAAGCCTCA) | 0.00806
5 | GCGAAGCCATGGACCGGTTTTCCCGGTAATCCGTATTTGGG (site GCGAAGCCTCC) | 0.00509
6 | GCGAAGCCATGGACCGGTTTTCCCGGTAATCCGTATTTGGG (site GCGAAGCCTCG) | 0
7 | GCGAAGCCATGGACCGGTTTTCCCGGTAATCCGTATTTGGG (site GCGAAGCCTCT) | 0.00749
8 | GCGAAGCCATGGACCGGTTTTCCCGGTAATCCGTATTTGGG (site GCGAAGCCTGC) | 0
9 | GCGAAGCCATGGACCGGTTTTCCCGGTAATCCGTATTTGGG (site GCGAAGCCTTC) | 0.0136
10 | GCGAAGCCATGGACCGGTTTTCCCGGTAATCCGTATTTGGG (site GCGAAGGCTCC) | 0
11 | GCGAAGCCATGGACCGGTTTTCCCGGTAATCCGTATTTGGG (site GCGAAGTCTCC) | 0.00693
12 | GCGAAGCCATGGACCGGTTTTCCCGGTAATCCGTATTTGGG (site GCGAATCCTCC) | 0.0162
13 | GCGAAGCCATGGACCGGTTTTCCCGGTAATCCGTATTTGGG (site GCGACGCCTCC) | 0.00657
14 | GCGAAGCCATGGACCGGTTTTCCCGGTAATCCGTATTTGGG (site GCGAGGCCTCC) | 0.0307
15 | GCGAAGCCATGGACCGGTTTTCCCGGTAATCCGTATTTGGG (site GCGATGCCTCC) | 0
16 | GCGAAGCCATGGACCGGTTTTCCCGGTAATCCGTATTTGGG (site GCGCAGCCTCC) | 0.011

Row | Sequence | recombinant UMI read abundance (log10)
17 | GCGAAGCCATGGACCGGTTTTCCCGGTAATCCGTATTTGGG (site GCGGAGCCTCC) | 0.0363
18 | GCGAAGCCATGGACCGGTTTTCCCGGTAATCCGTATTTGGG (site GCGTAGCCTCC) | 0.0104
19 | GCGAAGCCATGGACCGGTTTTCCCGGTAATCCGTATTTGGG (site GCTAAGCCTCC) | 0.0212
20 | GCGAAGCCATGGACCGGTTTTCCCGGTAATCCGTATTTGGG (site GGGAAGCCTCC) | 0.0306
21 | GCGAAGCCATGGACCGGTTTTCCCGGTAATCCGTATTTGGG (site GTGAAGCCTCC) | 0.0355
22 | GCGAAGCCATGGACCGGTTTTCCCGGTAATCCGTATTTGGG (site TCGAAGCCTCC) | 0.0116
23 | GCGAATCCATGGACCGGTTTTCCCGGTAATCCGTATTTGGG (site GCGAAACCTCC) | 0.0049
24 | GCGAATCCATGGACCGGTTTTCCCGGTAATCCGTATTTGGG (site GCGAACCCTCC) | 0
25 | GCGAATCCATGGACCGGTTTTCCCGGTAATCCGTATTTGGG (site GCGAAGCCTCC) | 0.23
26 | GCGAATCCATGGACCGGTTTTCCCGGTAATCCGTATTTGGG (site GCGAATCCTCC) | 0.00555
27 | GCGACGCCATGGACCGGTTTTCCCGGTAATCCGTATTTGTC (site GCGACGCCTGA) | 2.1
28 | GCGAGAACATGGACCGGTTTTCCCGGTAATCCGTATTTGCT (site GCGAAAACTAG) | 1.35
29 | GCGAGAACATGGACCGGTTTTCCCGGTAATCCGTATTTGCT (site GCGACAACTAG) | 0
30 | GCGAGAACATGGACCGGTTTTCCCGGTAATCCGTATTTGCT (site GCGAGAACTAG) | 2.24
31 | GCGAGAACATGGACCGGTTTTCCCGGTAATCCGTATTTGCT (site GCGATAACTAG) | 0.492
32 | GCGAGCTCATGGACCGGTTTTCCCGGTAATCCGTATTTGGG (site GCGAGCTCTCC) | 0.714
